For assay [1], the target named is human immuno proteasome (LMP7) (Homo sapiens (Human), UniProt P28062). As to the kind of experiment: Determination of LMP7 activity (fluorescence intensity assay, Suc-LLVY-AMC). It is filed as biochemical. The procedure:
Determination of LMP7 Activity:
Measurement of LMP7 inhibition is performed in 384 well format based on fluorescence intensity assay.
(§1) Purified human immuno proteasome (0.25 nM) and serial diluted compounds in DMSO (range of concentrations from 30 μM to 15 pM) or controls are incubated for 20 minutes or 120 minutes (long incubation) at 25° C. in assay buffer containing 50 mM Tris pH 7.4, 0.03% SDS, 1 mM EDTA and 1% DMSO. The reaction is initiated by the addition of the fluorogenic peptide substrate, Suc-LLVY-AMC (Bachem 1-1395), at a concentration of 40 μM. After 60 minutes of incubation at 37° C., fluorescence intensity is measured at λex=350 nm and λem=450 nm with a fluorescence reader (Perkin Elmer Envision reader or equivalent).
(§2) Unless indicated otherwise the results are obtained after incubation for 20 minutes.

Assay [2] deals with human constitutive proteasome (Beta5) (Homo sapiens (Human), UniProt P28074). In words: Determination of Beta5 activity (fluorescence intensity assay, Suc-LLVY-AMC). It is filed as biochemical. The protocol: Determination of Beta5 Activity:
Measurement of Beta5 inhibition is performed in 384 well format based on fluorescence intensity assay.
as §1, with “constitutive” for “immuno”, “(1.25” for “(0.25”
as §2

Setting [3] is: LMP7 versus Beta5, incubation for 20 minutes.
The mark [4] stands for this setting: LMP7 versus Beta5, long incubation (120 min).

The values below come from US10669289B2, “Boronic acid derivatives” (MERCK PATENT GMBH, priority 2014, dated 2020).

Bounds are passed on as bounds.

A word on the IC50: it is the point on the concentration scale where inhibition reaches its midpoint. Read a low IC50 as higher potency. As to `C=CC(=O)N(CC(=O)N[C@@H](Cc1ccc(C)cc1C)B(O)O)c1ccccc1` [Compound No. 26, [(1R)-2-(2,4-dimethylphenyl)-1-[[2-(N-prop-2-enoylanilino)acetyl]-amino]ethyl]boronic Acid], the “Selectivity LMP7 vs Beta5” value in assay [1] (setting [3]) was “+++++ (Selectivity ≥ 150)”. The IC50 is less than 0.05 µM in assay [1] (incubation for 20 minutes) and 0.5 to 5 µM in assay [2] (incubation for 20 minutes).

As to `C=CC(=O)N(CC(=O)N[C@@H](Cc1ccsc1)B(O)O)c1cc(Cl)cc(Cl)c1` [Compound No. 95, [(1R)-1-[[2-(3,5-dichloro-N-prop-2-enoyl-anilino)acetyl]amino]-2-(3-thienyl)ethyl]boronic Acid], in assay [1] (setting [4]), the “Selectivity LMP7 vs Beta5” value was “+++++ (Selectivity ≥ 150)”. For the same compound, the IC50 in assay [1] (long incubation (120 min)) was less than 0.05 µM; in assay [2] (long incubation (120 min)) it was greater than 5 µM.

For `CC#CC(=O)N(C)CC(=O)N[C@@H](Cc1ccc(C)cc1C)B(O)O` [Compound No. 20, [(1R)-1-[[2-[but-2-ynoyl(methyl)amino]acetyl]amino]-2-(2,4-dimethylphenyl)ethyl]boronic Acid], in assay [1] (setting [3]), the “Selectivity LMP7 vs Beta5” value is recorded as “+ (Selectivity < 50)”. Moreover, the IC50 is less than 0.05 µM in assay [1] (incubation for 20 minutes) and 0.5 to 5 µM in assay [2] (incubation for 20 minutes).

Turning to `C=CC(=O)N(CC(=O)N[C@@H](Cc1ccc(C)c(C)c1)B(O)O)CC(F)F` [Compound No. 83, [(1R)-1-[[2-[2,2-difluoroethyl(prop-2-enoyl)amino]acetyl]-amino]-2-(3,4-dimethylphenyl)ethyl]boronic Acid], the “Selectivity LMP7 vs Beta5” value in assay [1] (setting [4]) is on record as “+++++ (Selectivity ≥ 150)”. Further, the results for the IC50 in assay [1] (long incubation (120 min)) and in assay [2] (long incubation (120 min)) were 0.05 to 0.5 µM and greater than 5 µM, respectively.

Take `C=CS(=O)(=O)N(C)CC(=O)N[C@@H](Cc1ccc(C)c(C)c1)B(O)O` [Compound No. 10, [(1R)-2-(3,4-dimethylphenyl)-1-[[2-[methyl(vinylsulfonyl)amino]-acetyl]amino]ethyl]boronic Acid]: in assay [1] (setting [3]), the “Selectivity LMP7 vs Beta5” value is recorded as “+++++ (Selectivity ≥ 150)”. Besides, the IC50 in assay [1] (incubation for 20 minutes) was less than 0.05 µM; in assay [2] (incubation for 20 minutes), 0.5 to 5 µM.

Consider `C=CC(=O)N(CC(=O)N[C@@H](Cc1ccc(Cl)cc1Cl)B(O)O)CC(F)(F)F` [Compound No. 60, [(1R)-2-(2,4-dichlorophenyl)-1-[[2-[prop-2-enoyl(2,2,2-trifluoroethyl)amino]acetyl]amino]ethyl]boronic Acid], for which the “Selectivity LMP7 vs Beta5” value in assay [1] (setting [4]) is “+++++ (Selectivity ≥ 150)”. Besides, the IC50 in assay [1] (long incubation (120 min)) is less than 0.05 µM; in assay [2] (long incubation (120 min)) it was greater than 5 µM.

Turning to `C=CC(=O)N(CC(=O)NC(Cc1ccsc1)B(O)O)c1ccccc1CC` (centres unmarked) [Compound No. 93, [1-[[2-(2-ethyl-N-prop-2-enoyl-anilino)acetyl]amino]-2-(3-thienyl)ethyl]boronic Acid], the “Selectivity LMP7 vs Beta5” value in assay [1] (setting [4]) was “+++++ (Selectivity ≥ 150)”. Further, the IC50 is 0.05 to 0.5 µM in assay [1] (long incubation (120 min)) and greater than 5 µM in assay [2] (long incubation (120 min)).

For `C=CC(=O)N(CC(=O)N[C@@H](Cc1ccc(Cl)c(Cl)c1)B(O)O)C1CC1` [Compound No. 69, [(1R)-1-[[2-[cyclopropyl(prop-2-enoyl)amino]acetyl]amino]-2-(3,4-dichlorophenyl)ethyl]boronic Acid], in assay [1] (setting [4]), the “Selectivity LMP7 vs Beta5” value is “+++++ (Selectivity ≥ 150)”. This compound also had an IC50 in assay [2] (long incubation (120 min)) of 0.5 to 5 µM.

In the case of `C=CC(=O)N(CC)CC(=O)N[C@@H](Cc1ccc(C)c(C)c1C)B(O)O` [Compound No. 72, [(1R)-1-[[2-[ethyl(prop-2-enoyl)amino]acetyl]amino]-2-(2,3,4-trimethylphenyl)ethyl]boronic Acid], in assay [1] (setting [4]), the “Selectivity LMP7 vs Beta5” value is “+++++ (Selectivity ≥ 150)”. Also, the IC50 in assay [1] (long incubation (120 min)) was 0.05 to 0.5 µM; in assay [2] (long incubation (120 min)) it was greater than 5 µM.

In the case of `C=CC(=O)N1CCCC[C@@H]1C(=O)N[C@@H](Cc1ccc(Cl)cc1Cl)B(O)O` [Compound No. 51, [(1R)-2-(2,4-dichlorophenyl)-1-[[(2R)-1-prop-2-enoylpiperidine-2-carbonyl]amino]ethyl]boronic Acid], in assay [1] (setting [4]), the “Selectivity LMP7 vs Beta5” value is on record as “++++ (100 ≤ Selectivity < 150)”. In addition, the IC50 in assay [1] (long incubation (120 min)) is 0.05 to 0.5 µM; in assay [2] (long incubation (120 min)), greater than 5 µM.

For `C=CC(=O)N(C)CC(=O)N[C@@H](Cc1ccc(Cl)c(Cl)c1)B(O)O` [Compound No. 66, [(1R)-2-(3,4-dichlorophenyl)-1-[[2-[methyl(prop-2-enoyl)amino]acetyl]amino]ethyl]boronic Acid], in assay [1] (setting [4]), the “Selectivity LMP7 vs Beta5” value was “+++++ (Selectivity ≥ 150)”. Also, the results for the IC50 in assay [1] (long incubation (120 min)) and in assay [2] (long incubation (120 min)) were less than 0.05 µM and greater than 5 µM, respectively.

Regarding `C=CC(=O)N1CCCC[C@@H]1C(=O)N[C@@H](Cc1ccc(C)cc1C)B(O)O` [Compound No. 38, [(1R)-2-(2,4-dimethylphenyl)-1-[[(2R)-1-prop-2-enoylpiperidine-2-carbonyl]amino]ethyl]boronic Acid], the “Selectivity LMP7 vs Beta5” value in assay [1] (setting [4]) is “++++ (100 ≤ Selectivity < 150)”. In addition, the IC50 was 0.05 to 0.5 µM in assay [1] (long incubation (120 min)) and greater than 5 µM in assay [2] (long incubation (120 min)).

On to `C/C=C/C(=O)N(CC)CC(=O)N[C@@H](Cc1ccc(C)cc1C)B(O)O` [Compound No. 23, [(1R)-1-[[2-[[(E)-but-2-enoyl]-ethyl-amino]acetyl]amino]-2-(2,4-dimethylphenyl)ethyl]boronic Acid], for which, in assay [1] (setting [3]), the “Selectivity LMP7 vs Beta5” value is “+++ (70 ≤ 100)”. In addition, the results for the IC50 in assay [1] (incubation for 20 minutes) and in assay [2] (incubation for 20 minutes) were less than 0.05 µM and 0.5 to 5 µM, respectively.

For `C=CC(=O)N(CC(=O)N[C@@H](Cc1ccsc1)B(O)O)c1ccc(C(=O)N(C)C)cc1` [Compound No. 103, [(1R)-1-[[2-[4-(dimethylcarbamoyl)-N-prop-2-enoyl-anilino]acetyl]amino]-2-(3-thienyl)ethyl]boronic Acid], the “Selectivity LMP7 vs Beta5” value in assay [1] (setting [4]) is “+++++ (Selectivity ≥ 150)”. The IC50 in assay [1] (long incubation (120 min)) was less than 0.05 µM; in assay [2] (long incubation (120 min)), 0.5 to 5 µM.

`C=CC(=O)N(CC)CC(=O)N[C@@H](Cc1ccsc1)B(O)O` [Compound No. 77, [(1R)-1-[[2-[ethyl(prop-2-enoyl)amino]acetyl]amino]-2-(3-thienyl)ethyl]boronic Acid]: the “Selectivity LMP7 vs Beta5” value in assay [1] (setting [4]) is reported as “+++++ (Selectivity ≥ 150)”. The values for the IC50 in assay [1] (long incubation (120 min)) and in assay [2] (long incubation (120 min)) were less than 0.05 µM and greater than 5 µM, respectively.

As for `C=CC(=O)N1c2ccccc2CC1C(=O)N[C@@H](Cc1ccc(C)cc1C)B(O)O` (stereo partly drawn) [Compound No. 8, [(1R)-2-(2,4-dimethylphenyl)-1-[(1-prop-2-enoylindoline-2-carbonyl)amino]ethyl]boronic Acid], the “Selectivity LMP7 vs Beta5” value in assay [1] (setting [3]) was “+++ (70 ≤ 100)”. The values for the IC50 in assay [1] (incubation for 20 minutes) and in assay [2] (incubation for 20 minutes) were less than 0.05 µM and 0.5 to 5 µM, respectively.

Turning to `C=CC(=O)N1CCCC[C@H]1C(=O)N[C@@H](Cc1ccc(C)cc1C)B(O)O` [Compound No. 39, [(1R)-2-(2,4-dimethylphenyl)-1-[[(2S)-1-prop-2-enoylpiperidine-2-carbonyl]amino]ethyl]boronic Acid], the “Selectivity LMP7 vs Beta5” value in assay [1] (setting [4]) is “++ (50 ≤ Selectivity < 70)”. Besides, the IC50 was 0.5 to 5 µM in assay [1] (long incubation (120 min)) and greater than 5 µM in assay [2] (long incubation (120 min)).

As for `C=C(C)C(=O)N(CC)CC(=O)N[C@@H](Cc1ccccc1)B(O)O` [Compound No. 28, [(1R)-1-[[2-[ethyl(2-methylprop-2-enoyl)amino]acetyl]amino]-2-phenyl-ethyl]boronic Acid], the “Selectivity LMP7 vs Beta5” value in assay [1] (setting [3]) is “+ (Selectivity < 50)”. The IC50 is 0.5 to 5 µM in assay [1] (incubation for 20 minutes) and greater than 5 µM in assay [2] (incubation for 20 minutes).

In the case of `C=CC(=O)N(CC(=O)N[C@@H](Cc1ccc(C)cc1C)B(O)O)c1c(F)cccc1F` [Compound No. 43, [(1R)-1-[[2-(2,6-difluoro-N-prop-2-enoyl-anilino)acetyl]amino]-2-(2,4-dimethylphenyl)ethyl]boronic Acid], the “Selectivity LMP7 vs Beta5” value in assay [1] (setting [4]) is recorded as “+++++ (Selectivity ≥ 150)”. Also, the IC50 in assay [1] (long incubation (120 min)) is less than 0.05 µM; in assay [2] (long incubation (120 min)), greater than 5 µM.
